According to US20210236541A1, “IODOPHOR COMPOSITION WITH IMPROVED STABILITY IN THE PRESENCE OF ORGANIC MATERIAL” (priority 2014, published 2021):

How the values were obtained:
Format in all cases: cell-based
[1] = system: P. aeruginosa; test: Nebulisation simulation, kill efficiency on inoculated bandage; settings: 1 mL nebulised, 15 minutes exposure, FIG. 6
[2] = system: bacterial cells
[3] = system: E. coli ATCC 25922; test: Nebulisation simulation, kill efficiency on inoculated bandage; settings: for performance of the novel iodophor relative to the labelled antibiotic: nebulised, 15 minutes, Levofloxacin and Polymyxin B at all concentrations, Gentamycin 0.1 mg and 1 mg
[4] = system: E. coli ATCC 25922; test: MIC micro-broth dilution

## OO [Hydrogen peroxide]
[1]
  killing efficiency: limited killing efficiency
[2]
  recovery of viable bacterial cells: recovery of viable cells
[3]; 1 mL nebulised, 15 minutes exposure, FIG. 5
  killing efficiency: limited killing efficiency

## Gentamycin
[3]
  performance of the novel iodophor relative to the labelled antibiotic: superior

## Polymyxin B
[3]
  performance of the novel iodophor relative to the labelled antibiotic: equivalent performance

## polyvinylpyrrolidone iodine [PVP-I]
[4]; in lysogeny broth (LB), text of b30
  MIC: 500 µg/mL
[4]; in water
  minimum inhibitory concentration (MIC): < 1 µg/mL
[4]; organic rich growth medium (such as lysogeny broth)
  MBC value: > 500 µg/mL
